Biological target: T1, LHRH rat pituitary receptor (Rattus norvegicus, UniProt P30969)
T1 construct: from tissue; host or cells: rat pituitary
T1 sequence (P30969 1-327): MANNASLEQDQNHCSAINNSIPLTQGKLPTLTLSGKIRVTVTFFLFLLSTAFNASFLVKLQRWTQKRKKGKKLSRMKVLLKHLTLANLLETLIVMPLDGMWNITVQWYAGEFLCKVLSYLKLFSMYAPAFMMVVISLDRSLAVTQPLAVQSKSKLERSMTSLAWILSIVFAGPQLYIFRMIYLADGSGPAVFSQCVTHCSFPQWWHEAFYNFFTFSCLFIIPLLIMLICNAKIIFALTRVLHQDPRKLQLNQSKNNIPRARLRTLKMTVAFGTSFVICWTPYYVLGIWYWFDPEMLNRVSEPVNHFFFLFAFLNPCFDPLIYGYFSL
Assay: LHRH rat pituitary receptor binding (pKI)
Settings: receptor binding affinity, negative logarithm of the equilibrium dissociation constants
Experimental: Representative compounds of the present invention were evaluated in in vitro tests for LHRH rat pituitary receptor binding (pKI) and for LH inhibition from rat pituitary cells for antagonist potency (pA2). The tests employed the methods detailed in F. Haviv, et al. J. Med. Chem., 32: 2340-2344 (1989). The receptor binding affinity (pKI) is the negative logarithm of the equilibrium dissociation constants.

Structure (SMILES) | p KI | Ki [nM]
CCC1OC(=O)C(C)C(OC(=O)C2CCOC2)C(C)C(OC2OC(C)CC(NC(C)C)C2O)C(C)(OC)CC(C)C(=O)C(C)C2N(CCc3ccc(Cl)cc3)C(=O)OC12C (stereo not shown) [Example 10, 11-Deoxy-11-[carboxy(4-chlorophenethyl)amino]-5-O-(3'-bis-N-desmethyl-3'-N-isopropyl)desosaminyl-3-O-(tetrahydro-3-furoyl)-6-O-methyl-erythronolide A 11,12-(cyclic carbamate)] | 8.09 | 
CC[C@H]1OC(=O)[C@H](C)[C@@H](OC(=O)N2C(=O)OC[C@@H]2C)[C@H](C)[C@@H](O[C@@H]2O[C@H](C)C[C@H](N(C)C)[C@H]2O)[C@](C)(OC)C[C@@H](C)C(=O)[C@H](C)[C@H]2N(CCc3ccc(Cl)c(Cl)c3)C(=O)O[C@]12C [Example 11, 11-Deoxy-11-[carboxy(3,4-dichlorophenethyl)amino]-3-O-[4-(S)-methyl-oxazolidin-2-one]carbamoyl-5-O-desosaminyl-6-O-methyl-erythronolide A 11,12-(cyclic carbamate)] |  | 3.16
CCCN(C)[C@H]1C[C@@H](C)O[C@@H](O[C@@H]2[C@@H](C)[C@H](OC(=O)N3C(=O)OC[C@@H]3C)[C@@H](C)C(=O)O[C@H](CC)[C@@]3(C)OC(=O)N(CCc4ccc(Cl)c(Cl)c4)[C@@H]3[C@@H](C)C(=O)[C@H](C)C[C@@]2(C)OC)[C@@H]1O [Example 16, 11-Deoxy-11-[carboxy(3,4-dichlorophenethyl)amino]-3-O-[4-(S)-methyl-oxazolidin-2-one]carbamoyl-5-O-(3'-N-desmethyl-3'-N-n-propyl)desosaminyl-6-O-methyl-erythronolide A 11,12-(cyclic carbamate)] |  | 3.98
CC[C@H]1OC(=O)[C@H](C)[C@@H](OC(=O)C2CCOC2)[C@H](C)[C@@H](O[C@@H]2O[C@H](C)C[C@H](N(C)C(C)C)[C@H]2O)[C@](C)(OC)C[C@@H](C)C(=O)[C@H](C)[C@H]2N(CCc3ccc(Cl)cc3)C(=O)O[C@]12C (stereo partly shown) [Example 9, 11-Deoxy-11-[carboxy(4-chlorophenethyl)amino]-5-O-(3'-N-desmethyl-3'-N-isopropyl)desosaminyl-3-O-(tetrahydro-3-furoyl)-6-O-methyl-erythronolide A 11 12-(cyclic carbamate)] | 7.85 | 

Other lines, results leading:

p KI | Ki [nM] | Structure (SMILES)
 | 0.251 | CC[C@H]1OC(=O)[C@H](C)[C@@H](OC(=O)N2C(=O)OC[C@@H]2C)[C@H](C)[C@@H](O[C@@H]2O[C@H](C)C[C@H](N(C)C3CCC3)[C@H]2O)[C@](C)(OC)C[C@@H](C)C(=O)[C@H](C)[C@H]2N(CCc3ccc(Cl)cc3)C(=O)O[C@]12C [Example 24, 11-Deoxy-11-[carboxy(4-chlorophenethyl)amino]-3-O-[4-(S)-methyl-oxazolidin-2-one]carbamoyl-5-O-(3'-N-desmethyl-3'-N-cyclobutyl)desosaminyl-6-O-methyl-erythronolide A 11,12-(cyclic carbamate)]
 | 0.589 | CC[C@H]1OC(=O)[C@H](C)[C@@H](OC(=O)N2C(=O)OC[C@@H]2C)[C@H](C)[C@@H](O[C@@H]2O[C@H](C)C[C@H](N(CC)C(C)C)[C@H]2O)[C@](C)(OC)C[C@@H](C)C(=O)[C@H](C)[C@H]2N(CCc3ccc(Cl)c(Cl)c3)C(=O)O[C@]12C [Example 20, 11-Deoxy-11-[carboxy(3,4-dichlorophenethyl)amino]-3-O-[4-(S)-methyl-oxazolidin-2-one]carbamoyl-5-O-(3'-bis-N-desmethyl-3'-N-ethyl-3'-N-isopropyl)desosaminyl-6-O-methyl-erythronolide A 11,12-(cyclic carbamate)]
 | 0.129 | CC[C@H]1OC(=O)[C@H](C)[C@@H](OC(=O)N2C(=O)OC[C@@H]2C)[C@H](C)[C@@H](O[C@@H]2O[C@H](C)C[C@H](N(C)C3CCCC3)[C@H]2O)[C@](C)(OC)C[C@@H](C)C(=O)[C@H](C)[C@H]2N(CCc3ccc(F)cc3)C(=O)O[C@]12C [Example 30, 11-Deoxy-11-[carboxy(4-fluorophenethyl)amino]-3-O-[4-(S)-methyl-oxazolidin-2-one]carbamoyl-5-O-(3'-N-desmethyl-3'-N-cyclopentyl)desosaminyl-6-O-methyl-erythronolide A 11,12-(cyclic carbamate)]

Reference: US6020521A, “Macrolide LHRH antagonists” (Abbott Laboratories, priority 1998, dated 2000)
